We go through 1 compound from article PMC6444227, “Pharmacological Evaluation of Secondary Metabolites and Their Simultaneous Determination in the Arabian Medicinal Plant Plicosepalus curviflorus Using HPTLC Validated Method” (Journal of Analytical Methods in Chemistry, 2019).

What all share (assay): Cytotoxicity assay (Borenfreund method, 48 h)
Type in all cases: cell-based

The subject of one assay is BT-549. To be noted: Homo sapiens, NA = no cytotoxic activity upto 100 µg/mL, read-out: Cancer cells IC50, BT-549. The protocol:
(§1) Four human cancer cell lines (SK-OV-3, SK-MEL, BT-549 and KB) and two noncancerous kidney cell lines (VERO and LLC-PK1) were measured in the in vitro cytotoxic study. Test samples were added on the cell lines with variable concentrations, followed by 48 h incubation. According to the Borenfreund method, the cell viability was determined at the end of incubation, using doxorubicin as a positive control.

In the next assay the test system is SK-OV-3. To be noted: Homo sapiens, NA = no cytotoxic activity upto 100 µg/mL, read-out: Cancer cells IC50, SK-OV-3. On the procedure:
as §1

The subject of a further assay is SK-MEL. The settings on record: Homo sapiens, NA = no cytotoxic activity upto 100 µg/mL, read-out: Cancer cells IC50, SK-MEL. On the procedure:
as §1

The test system of another assay is VERO. The settings on record: Chlorocebus sabaeus, NA = no cytotoxic activity upto 100 µg/mL, read-out: Noncancer cells IC50, VERO. The protocol: as §1
For another assay, the system named is KB. To be noted: Homo sapiens, NA = no cytotoxic activity upto 100 µg/mL, read-out: Cancer cells IC50, KB. The protocol:
as §1

For another assay, the system named is LLC-PK11. To be noted: NA = no cytotoxic activity upto 100 µg/mL, read-out: Noncancer cells IC50, LLC-PK11. On the procedure: as §1

Each structure is given as a SMILES string. ≈ marks a conversion by molar mass, not a printed value.

As usually defined, the IC50 is the point on the concentration scale where inhibition reaches its midpoint.

With `COc1cccc2c1C(=O)c1c(O)c3c(c(O)c1C2=O)C[C@@](O)(C(=O)CO)C[C@@H]3O[C@H]1C[C@H](N)[C@H](O)[C@H](C)O1` [Doxorubicin], the IC50 was 1.93 mg/L (≈ 3.55 µM) in the assay with BT-549; 0.8 mg/L (≈ 1.47 µM) in the assay with SK-OV-3; 1.23 mg/L (≈ 2.26 µM) with SK-MEL; above 5 mg/L with VERO; 1.85 mg/L (≈ 3.4 µM) in the assay with KB; 0.85 mg/L (≈ 1.56 µM) in the assay with LLC-PK11.
